These results are taken from ChEMBL document CHEMBL1128919, “Synthesis and characterization of cyclic ATP-ribose: a potent mediator of calcium release” (Bioorg Med Chem Lett, 1996).

The species entered for this experiment is Rattus norvegicus. Nature of the experiment: Half-maximal effective dose for inducing [Ca2+] release from rat brain microsomes. The experiment is classed as functional.

In turn, `N=c1c2ncn3c2ncn1[C@@H]1O[C@H](COP(=O)(O)OP(=O)(O)OP(=O)(O)OC[C@H]2O[C@@H]3[C@H](O)[C@@H]2O)[C@@H](O)[C@H]1O` returned an ED50 of 0.8 µM.
